Laboratory results as given in patent US20030153081A1, “Viral core protein-cationic lipid-nucleic acid-delivery complexes” (priority 1999, published 2003).

Tests used:
[1] = charge ratios worked out from the sequence; assay type: physicochemical
Excerpt: Mu1 is a polycationic peptide comprised of 19 amino acids associated with the core complex of Adenovirus (Table 1) ^27, 32. We compared the DNA binding capacity of Mu1 with the mouse polyomavirus major capsid protein Vp1 by interaction with plasmid DNA in a gel retardation assay. Vp1 is a 19 amino acid peptide that contains a nuclear localization signal ^26 and contains fewer positively charged amino acids than Mu1. It was therefore predicted to have a lower DNA binding capacity.
The success of non-viral gene delivery vehicles as viable alternatives to virus vector-based systems is dependent on the development of complexes with higher and longer lasting transfection efficiencies. Since the initial identification of cationic liposomes as vehicles for the transfer of genetic material into cells there has been a large push to develop better cationic liposome formulations ^5, 7. Most attempts at improving cationic liposomes have been based on structural modifications to the molecule itself ^30. Novel formulations have been developed which have improved transfection efficiencies ^30. However, particular cell types behave differently in regards to cationic liposomal transfection. For example, we found the polypeptide Mu1 better at enhancing cationic liposome mediated transfection than Vp1. This was probably due to Mu1's greater charge ratio. While both peptides are approximately the same molecular weight, the overall charge ratio of Mu1 was more than twice that of Vp1 (Table 1). […] While a small shift in pDNA mobility was detected when 0.25 μg Mu1 was complexed to 1 μg pCMVβ, almost all of the plasmid was retained near the loading well following addition of 0.5 μg Mu1 (FIG. 1). A 0.5/1.0 (w/w) ratio of Mu1 to pCMVβ corresponds to a 1000/1 molar ratio. Each molecule of Mu1 contains 12 residues that could potentially carry a positive charge. The theoretical charge ratio of Mu1 to pCMVβ would then be 1.6 (12000 Mu1 cations to 7500 pCMVβ anions).

ND7 cells = experiment: X-gal histochemistry cell counts, undifferentiated ND7 cells; assay type: cell-based, rat/mouse
Protocol: ND7 neurons were plated in 24 well culture dishes at a density of 4×10^4 cells/well and allowed to grow for 24 hrs. The undifferentiated ND7 neurons were then transfected with either pCMVb alone (A), pCMVb complexed with DC-Chol/DOPE (1/3, w/w) (B) or with pCMVb complexed with Mu1 and DC-Chol/DOPE (1/12/6) (C). Forty-eight hours later the cells were fixed and processed for histochemical detection of X-Gal.
DNA and liposomes were combined by the addition of 400 μL serum-free differentiation media and gentle shaking. The DNA: liposome mixture was incubated at room temperature for 20 to 30 minutes before being applied to the cells. The DNA/liposome mixture was then applied to the cells and incubated at 37° C., 5% CO2 for 2 hours after which this media was replaced with complete media Twenty four to 48 hours later the cells were fixed and processed for X-gal histochemistry as described ^31 or harvested for β-galactosidase enzyme assays (Promega Corp.).
Cell counts were performed under ×40 magnification using a Nikon Diaphot inverted microscope. Each transfection was repeated at least three times and at least three separate counts were made for each well.
The β-galactosidase reporter gene assay provides a measure of the overall level of β-galactosidase produced, but gives no information regarding the number of cells transfected. For this reason, we also performed cell counts on transfected ND7 cells. Cells were seeded at a density of 4×10^4 in 24 well culture plates. After 24 hours the cells were washed briefly in serum-free media and transfected with pCMVβ complexed to DC-Chol/DOPE and Mu1 peptide. The ratios used were those found to be optimal in the reporter gene assay, 1:12:6, pCMVβ:Mu1:DC-Chol/DOPE. Using these ratios, we found a 6-fold increase in the number of β galactosidase positive cells (FIGS. 3 & 6).

H-MRRAHHRRRRASHRRMRGG-OH [Mu1]
Charge/AA ratio [1]: 0.63
theoretical charge ratio of Mu1 to pCMVβ ([1]; 0.5/1.0 (w/w) Mu1 to pCMVβ, 12000 cations to 7500 anions): 1.6
number of X-Gal positive cells (FIG. 3) (ND7 cells; 1/12/6 vs pCMVβ with DC-Chol/DOPE 1/3, 48 h): significantly enhanced the number of X-Gal positive cells
increase in the number of β galactosidase positive cells (ND7 cells; 1:12:6 pCMVβ:Mu1:DC-Chol/DOPE): 6 fold
cell loss (ND7 cells; Mu1 complex, any of the concentrations utilized): No obvious cell loss
